In general, amount remaining refers to what is left of the initial amount, in per cent. A word on the EC50: it is the concentration at which the effect is half-maximal. Low readings indicate greater potency, high ones weaker potency.

This is an account of results in publication PMC7878925, “Continuous stimulation of dual-function peptide PGLP-1-VP inhibits the morbidity and mortality of NOD mice through anti-inflammation and immunoregulation” (Scientific Reports, 2021).

Where no end group is shown, it is not given here.

The test system of one series is DPP-IV. Kind of series: in vitro. The conditions noted are these: human, isolated enzyme dpp iv. The procedure:
Stability test for DPP-IV in vitro was performed as previously described.

Another series concerns the target human GLP-1R (Homo sapiens, UniProt P43220). Kind of series: cell-based. The procedure: Human embryonic kidney (HEK-293) cells were obtained from ATCC and cultured in growing media (DMEM: 25 mM glucose, 10% FBS, 100 µg/mL penicillin and 100 µg/mL streptomycin).
The next series concerns NOD mice. The conditions noted are these: 210 nmol/kg s.c. twice weekly for 24 weeks. The procedure: Female 4-week-old NOD mice were obtained from Beijing HFK Bioscience Co. Ltd. (Beijing, China). NOD mice were randomly divided into 4 groups: vehicle, PGLP-1, VP and PGLP-1-VP, and each group was subcutaneously injected twice weekly with placebo [Lipofundin[32] (B. Braun Melsungen AG, Melsungen, Germany)] or 210 nmol/kg of peptides for 24 weeks. Body weight and blood glucose were measured once every 2 weeks until the end of the observation period. NOD mice were considered diabetic when blood glucose concentrations exceeded 200 mg/dL for 2 consecutive measurements. The onset time and death time of diabetic mice were calculated. Indexes of dead mice were shown as the last blood glucose or weight data. Blood samples were collected retro-orbital and centrifuged, and then serum was collected. Serum C-peptide levels and transforming growth factor-β1 (TGF-β1) were measured by enzyme-linked immunosorbent kits (Jiancheng Bio-Engineering Institute Co., Ltd. Nanjing, China).

human GLP-1R, sequence (P43220 24-463): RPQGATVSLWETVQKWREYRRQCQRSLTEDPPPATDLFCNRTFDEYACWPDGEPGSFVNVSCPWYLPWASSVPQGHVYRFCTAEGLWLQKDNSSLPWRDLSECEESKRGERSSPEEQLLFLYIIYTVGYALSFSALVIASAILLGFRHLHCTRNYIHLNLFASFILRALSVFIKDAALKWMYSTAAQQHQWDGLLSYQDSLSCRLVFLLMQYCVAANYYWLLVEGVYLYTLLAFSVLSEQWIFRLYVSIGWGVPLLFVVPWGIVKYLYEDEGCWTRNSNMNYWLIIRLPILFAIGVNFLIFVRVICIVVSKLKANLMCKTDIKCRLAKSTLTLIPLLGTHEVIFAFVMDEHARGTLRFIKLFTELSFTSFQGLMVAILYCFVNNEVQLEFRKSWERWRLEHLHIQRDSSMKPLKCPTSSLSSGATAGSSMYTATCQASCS

For `CC[C@H](C)[C@H](NC(=O)[C@H](Cc1ccccc1)NC(=O)[C@H](CCC(=O)O)NC(=O)[C@H](CCCCN)NC(=O)[C@H](C)NC(=O)[C@H](C)NC(=O)[C@H](CCC(N)=O)NC(=O)CNC(=O)[C@H](CCC(=O)O)NC(=O)[C@H](CC(C)C)NC(=O)[C@H](Cc1ccc(O)cc1)NC(=O)[C@H](CO)NC(=O)[C@H](CO)NC(=O)[C@@H](NC(=O)[C@H](CC(=O)O)NC(=O)[C@H](CO)NC(=O)[C@@H](NC(=O)[C@H](Cc1ccccc1)NC(=O)[C@@H](NC(=O)CNC(=O)[C@H](CCC(=O)O)NC(=O)[C@H](C)NC(=O)[C@@H](N)Cc1c[nH]cn1)[C@@H](C)O)[C@@H](C)O)C(C)C)C(=O)N[C@@H](C)C(=O)N[C@@H](Cc1c[nH]c2ccccc12)C(=O)N[C@@H](CC(C)C)C(=O)N[C@H](C(=O)N[C@@H](CCCCN)C(=O)NCC(=O)N[C@@H](CCCN=C(N)N)C(=O)NCC(=O)O)C(C)C` [GLP-1, Glucagon-like peptide-1], the fraction remaining at 10 h, 10 µM with DPP-IV came out at 6.3%.
With “HGEGTFTSDVSSYLEGQAAKEFIAWLVKGRGPGVLGGGCRCIPALDSLTPANED (cysteines drawn unpaired) [PGLP-1-VP]”, on human GLP-1R, it took 0.139 ± 0.037 µM to reach a half-maximal effect (EC50). Moreover, the “body weights compared to controls” value with NOD mice is “not affected”.
